In PubChem BioAssay AID330 (DTP/NCI, 2004):
Several values for one entry are separate records, joined by “and”; a condition that tells them apart may be missing. Equal values may be shown once. Inconclusive results and toxic doses are left out. Square brackets hold non-standard residues; d marks the D form. Peptide text beside a SMILES is read from it. * marks the point of attachment. ξ: configuration not given here. Ac5c = NC1(C(=O)O)CCCC1; Cbz = O=C(OCc1ccccc1)*; Nva = CCC[CH](N)C(=O)O; ξS = NC(CO)C(=O)O

Test system: P388 leukemia ip, CD2F1 mice, survival T/C
Test: NCI In Vivo Anticancer Drug Screen. Data for tumor model P388 Leukemia (intraperitoneal) in CD2F1 (CDF1) mice
Settings: endpoint: median survival time, higher = longer survival
Method in brief: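 Mice carrying the transplanted tumor received test compound or vehicle. Survival was recorded in each group, and the value is the treated-group measurement divided by that of the vehicle-treated control group.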

[1] = dose: 60.0 mg/kg/injection, schedule: Q01DX005 (ip), vehicle: saline with Tween-80
[2] = dose: 120.0 mg/kg/injection, schedule: Q01DX005 (ip), vehicle: saline with Tween-80
[3] = dose: 240.0 mg/kg/injection, schedule: Q01DX005 (ip), vehicle: saline with Tween-80
[4] = dose: 50.0 mg/kg/injection, schedule: Q01DX005 (ip), vehicle: Klucel (hydroxypropylcellulose) (HPC)
[5] = dose: 100.0 mg/kg/injection, schedule: Q01DX005 (ip), vehicle: Klucel (hydroxypropylcellulose) (HPC)
[6] = dose: 200.0 mg/kg/injection, schedule: Q01DX005 (ip), vehicle: Klucel (hydroxypropylcellulose) (HPC)
[7] = dose: 50.0 mg/kg/injection, schedule: Q01DX005 (ip), vehicle: saline with Tween-80

In the case of `CN1CCN(C(=O)/C=C/C(=O)c2ccccc2)CC1`, the T/C (dose: 30.0 mg/kg/injection, schedule: Q01DX005 (ip), vehicle: Klucel (hydroxypropylcellulose) (HPC)) is reported as 121 % of control, the T/C (dose: 30.0 mg/kg/injection, schedule: Q01DX005 (ip), vehicle: saline) is reported as 108 % of control and the T/C (dose: 60.0 mg/kg/injection, schedule: Q01DX005 (ip), vehicle: saline) is reported as 106 % of control and 109 % of control.
For `O=C1NC(=O)C2(C(=O)c3cccc4cccc2c34)N1c1ccccc1` (configuration not stated), the T/C (dose: 50.0 mg/kg/injection, schedule: Q01DX009 (ip), vehicle: distilled water + alcohol) was 94 % of control, the T/C (dose: 100.0 mg/kg/injection, schedule: Q01DX009 (ip), vehicle: distilled water + alcohol) was 102 % of control and the T/C (dose: 200.0 mg/kg/injection, schedule: Q01DX009 (ip), vehicle: distilled water + alcohol) was 100 % of control.
For `CC(C)(C)/[N+]([O-])=C/C=C\C=C\C=O`, the T/C (dose: 50.0 mg/kg/injection, schedule: Q01DX001 (ip), vehicle: Klucel (hydroxypropylcellulose) (HPC)) was 116 % of control, the T/C (dose: 100.0 mg/kg/injection, schedule: Q01DX001 (ip), vehicle: Klucel (hydroxypropylcellulose) (HPC)) was 120 % of control and the T/C (dose: 200.0 mg/kg/injection, schedule: Q01DX001 (ip), vehicle: Klucel (hydroxypropylcellulose) (HPC)) was 122 % of control.
`COc1ccccc1N=Nc1c(-c2cccs2)nn(C(=S)SC)c1C(F)(F)F` was tested, and the T/C [1] was 92 % of control, the T/C [2] was 97 % of control and the T/C [3] was 97 % of control.
In the case of `CCOC(=O)CNc1sc(=S)[nH]c1C(=O)OCC`, the T/C [4] is reported as 100 % of control, the T/C [5] is reported as 91 % of control and the T/C [6] is reported as 92 % of control.
In the case of `CCCC(NC(=O)OCc1ccccc1)C(=O)NC(C(=O)O)C(C)C` (configuration not stated) (Cbz-[Nva]-Val-OH; configuration not given here), the T/C [4] is reported as 94 % of control, the T/C [5] is reported as 92 % of control and the T/C [6] is reported as 96 % of control.
With `NC(=O)c1ccc(N)nc1` the T/C (dose: 0.63 mg/kg/injection, schedule: Q01DX009 (ip), vehicle: saline) was 104 % of control, the T/C (dose: 1.25 mg/kg/injection, schedule: Q01DX009 (ip), vehicle: saline) was 100 % of control and the T/C (dose: 1.56 mg/kg/injection, schedule: Q01DX009 (ip), vehicle: saline with Tween-80) was 110 % of control. The T/C (dose: 2.5 mg/kg/injection, schedule: Q01DX009 (ip), vehicle: saline) was 121 % of control, the T/C (dose: 3.12 mg/kg/injection, schedule: Q01DX009 (ip), vehicle: saline with Tween-80) was 122 % of control and the T/C (dose: 6.25 mg/kg/injection, schedule: Q01DX009 (ip), vehicle: saline with Tween-80) was 117 % of control and 95 % of control. For the same molecule, the T/C (dose: 6.25 mg/kg/injection, schedule: Q04DX003 (ip), vehicle: saline with Tween-80) was 109 % of control.
`COc1cccc2c1C(=O)c1c(O)c3c(c(O)c1C2=O)CC(O)(C(O)CO)CC3OC1CC(N2CCOCC2C#N)C(O)C(C)O1` (configuration not stated) was tested, and the T/C (dose: 0.2 mg/kg/injection, schedule: Q04DX003 (ip), vehicle: water) was 176 % of control, the T/C (dose: 0.8 mg/kg/injection, schedule: Q04DX003 (ip), vehicle: water) was 89 % of control and the T/C (dose: 6.25 micrograms/kg/injection, schedule: Q04DX003 (ip), vehicle: water) was 101 % of control. For the same molecule, the T/C (dose: 12.5 micrograms/kg/injection, schedule: Q04DX003 (ip), vehicle: water) was 107 % of control and 113 % of control, the T/C (dose: 25.0 micrograms/kg/injection, schedule: Q04DX003 (ip), vehicle: water) was 106 % of control and 117 % of control and the T/C (dose: 50.0 micrograms/kg/injection, schedule: Q04DX003 (ip), vehicle: water) was 119 % of control and 120 % of control. For the same molecule, the T/C (dose: 100.0 micrograms/kg/injection, schedule: Q04DX003 (ip), vehicle: water) was 124 % of control and the T/C (dose: 200.0 micrograms/kg/injection, schedule: Q04DX003 (ip), vehicle: water) was 124 % of control.
In the case of `Cc1ccc(NC(=O)N(C)C)c(C)c1`, the T/C (dose: 60.0 mg/kg/injection, schedule: Q01DX005 (ip), vehicle: Klucel (hydroxypropylcellulose) (HPC)) is reported as 97 % of control, the T/C (dose: 120.0 mg/kg/injection, schedule: Q01DX005 (ip), vehicle: Klucel (hydroxypropylcellulose) (HPC)) is reported as 97 % of control and the T/C (dose: 240.0 mg/kg/injection, schedule: Q01DX005 (ip), vehicle: Klucel (hydroxypropylcellulose) (HPC)) is reported as 94 % of control.
With `N#CC1C(=O)NC(=S)NC1CCc1ccccc1` (configuration not stated) the T/C (dose: 50.0 mg/kg/injection, schedule: Q01DX009 (ip), vehicle: Klucel (hydroxypropylcellulose) (HPC)) was 105 % of control, the T/C (dose: 100.0 mg/kg/injection, schedule: Q01DX009 (ip), vehicle: Klucel (hydroxypropylcellulose) (HPC)) was 99 % of control and the T/C (dose: 200.0 mg/kg/injection, schedule: Q01DX009 (ip), vehicle: Klucel (hydroxypropylcellulose) (HPC)) was 100 % of control.
For `COCCCn1cnn2c(=O)c3ccccc3nc2c1=O`, the T/C [1] was 103 % of control, the T/C [2] was 99 % of control and the T/C [3] was 100 % of control.
`COP(=O)(OC)C(=[N+]=[N-])c1ccccc1` was tested, and the T/C (dose: 6.25 mg/kg/injection, schedule: Q01DX009 (ip), vehicle: water) was 98 % of control, the T/C (dose: 12.5 mg/kg/injection, schedule: Q01DX009 (ip), vehicle: water) was 106 % of control and the T/C (dose: 50.0 mg/kg/injection, schedule: Q01DX009 (ip), vehicle: water) was 93 % of control. The T/C (dose: 100.0 mg/kg/injection, schedule: Q01DX009 (ip), vehicle: water) was 98 % of control and the T/C (dose: 200.0 mg/kg/injection, schedule: Q01DX009 (ip), vehicle: water) was 90 % of control.
`CCCCN(CCCC)CC(O)c1ccc(OCc2ccccc2)c2ccccc12` (configuration not stated) was tested, and the T/C [7] was 102 % of control, the T/C (dose: 100.0 mg/kg/injection, schedule: Q01DX005 (ip), vehicle: saline with Tween-80) was 102 % of control and the T/C (dose: 200.0 mg/kg/injection, schedule: Q01DX005 (ip), vehicle: saline with Tween-80) was 102 % of control.
For `COC(=O)C(=O)c1cc(=O)[nH]c(NC(C)=O)n1`, the T/C (dose: 100.0 mg/kg/injection, schedule: Q01DX001 (ip), vehicle: saline with Tween-80) was 107 % of control, the T/C (dose: 200.0 mg/kg/injection, schedule: Q01DX001 (ip), vehicle: saline with Tween-80) was 101 % of control and the T/C (dose: 400.0 mg/kg/injection, schedule: Q01DX001 (ip), vehicle: saline with Tween-80) was 107 % of control.
`CCCCCCN=Cc1c(O)c(O)c(C(C)C)c2cc(C)c(-c3c(C)cc4c(C(C)C)c(O)c(O)c(C=NCCCCCC)c4c3O)c(O)c12` was tested, and the T/C (dose: 12.0 mg/kg/injection, schedule: Q01DX005 (ip), vehicle: saline with Tween-80) was 100 % of control, the T/C (dose: 25.0 mg/kg/injection, schedule: Q01DX005 (ip), vehicle: saline with Tween-80) was 92 % of control and the T/C [7] was 96 % of control.
In the case of `COc1cc(-c2nn(CN3CCOCC3)c(=S)o2)cc(OC)c1OC`, the T/C [4] is reported as 96 % of control, the T/C [5] is reported as 97 % of control and the T/C [6] is reported as 99 % of control.
`CCOC(=O)C(CO)NC(=O)C1(NC(C)=O)CCCC1` (configuration not stated) (Ac-[Ac5c]-[ξS]-OEt) was tested, and the T/C (dose: 50.0 mg/kg/injection, schedule: Q01DX005 (ip), vehicle: saline) was 100 % of control, the T/C (dose: 100.0 mg/kg/injection, schedule: Q01DX005 (ip), vehicle: saline) was 100 % of control and the T/C (dose: 200.0 mg/kg/injection, schedule: Q01DX005 (ip), vehicle: saline) was 100 % of control.
`NC(=O)c1csc(C2OC3COP(=O)(O)OC3C2O)n1` (configuration not stated) was tested, and the T/C (dose: 12.5 mg/kg/injection, schedule: Q01DX005 (ip), vehicle: water) was 105 % of control, the T/C (dose: 25.0 mg/kg/injection, schedule: Q01DX005 (ip), vehicle: water) was 105 % of control and the T/C (dose: 50.0 mg/kg/injection, schedule: Q01DX005 (ip), vehicle: water) was 114 % of control and 118 % of control. For the same molecule, the T/C (dose: 100.0 mg/kg/injection, schedule: Q01DX005 (ip), vehicle: water) was 123 % of control and 124 % of control, the T/C (dose: 200.0 mg/kg/injection, schedule: Q01DX005 (ip), vehicle: water) was 152 % of control and the T/C (dose: 400.0 mg/kg/injection, schedule: Q01DX005 (ip), vehicle: water) was 155 % of control.
`O=[N+]([O-])C(Br)(CO)CCC(Br)(CO)[N+](=O)[O-]` (configuration not stated) was tested, and the T/C (dose: 6.25 mg/kg/injection, schedule: Q01DX001 (ip), vehicle: Klucel (hydroxypropylcellulose) (HPC)) was 111 % of control, the T/C (dose: 12.5 mg/kg/injection, schedule: Q01DX001 (ip), vehicle: Klucel (hydroxypropylcellulose) (HPC)) was 104 % of control and the T/C (dose: 25.0 mg/kg/injection, schedule: Q01DX001 (ip), vehicle: Klucel (hydroxypropylcellulose) (HPC)) was 107 % of control.
With `COc1cc(CC(C)N)ccc1O` (configuration not stated) the T/C (dose: 12.5 mg/kg/injection, schedule: Q01DX009 (ip), vehicle: saline with Tween-80) was 100 % of control, the T/C (dose: 25.0 mg/kg/injection, schedule: Q01DX009 (ip), vehicle: saline with Tween-80) was 99 % of control and the T/C (dose: 50.0 mg/kg/injection, schedule: Q01DX009 (ip), vehicle: saline with Tween-80) was 104 % of control. The T/C (dose: 100.0 mg/kg/injection, schedule: Q01DX009 (ip), vehicle: saline with Tween-80) was 95 % of control.
`CC([NH-])C[NH-].O=C(O)CC(=O)O.[Pt+2]` was tested, and the T/C (dose: 25.0 mg/kg/injection, schedule: Q04DX002 (ip), vehicle: saline with Tween-80) was 153 % of control and 158 % of control and the T/C (dose: 50.0 mg/kg/injection, schedule: Q04DX002 (ip), vehicle: saline with Tween-80) was 179 % of control and 183 % of control.
